EP2061765B1, “Serine-threonine protein kinase and PARP modulators” (Senhwa Biosciences, Inc., priority 2006, dated 2008)

Legend:
Test in all cases: Cell proliferation assay (Alamar Blue)
Type in all cases: cell-based
BxPC3 = conditions: Homo sapiens, BXPC-3, 96 h, BxPC3 cells, four days
Outline: (§1)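 Cells plated at 4,000-5,000 per well, then exposed to compound for four days at 37°C, 5% CO2. Alamar Blue added for a further 4 h; fluorescence read at ex 544/em 590 nm. Medium-only wells served as blank, cells without compound as untreated control.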

PanC1 = conditions: Homo sapiens, PANC-1, 96 h, PanC1 cells, four days
Outline: as §1

MDAMB231 = conditions: Homo sapiens, MDA-MB-231, 96 h, MDAMB231 cells, four days
Outline: as §1

MCF-7 = conditions: Homo sapiens, MCF7, 96 h, MCF-7 cells, four days
Outline: as §1

A549 = conditions: Homo sapiens, 96 h, A549 cells, four days
Outline: as §1

LNCaP = conditions: Homo sapiens, 96 h, LNCaP cells, four days
Outline: as §1

HCT-116 = conditions: Homo sapiens, 96 h, HCT-116 cells, four days
Hs578T = conditions: Homo sapiens, Hs-578T, 96 h, Hs578T cells, four days
Outline: as §1

PC3 = conditions: Homo sapiens, PC-3, 96 h, PC3 cells, four days
Outline: as §1

Jurkat = conditions: Homo sapiens, 96 h, Jurkat cells, four days
Outline: as §1

H1299 = conditions: Homo sapiens, NCI-H1299, 96 h, H1299 cells, four days
Outline: as §1

MiaPaCa = conditions: Homo sapiens, MIA PaCa-2, 96 h, MiaPaCa cells, four days
Outline: as §1

K-562 = conditions: Homo sapiens, K562, 96 h, K-562 cells, four days

CNc1ncc2c(n1)c(Nc1cccc(Cl)c1)nc1cc(C(=O)O)ccc12 [drawing 480]
IC50 (BxPC3): 2.56 µM
IC50 (PanC1): 8.3 µM

Fc1cccc(Nc2nc3cc(-c4nnn[nH]4)ccc3c3cnccc23)c1 [drawing 381]
IC50 (MDAMB231): > 50 µM
IC50 (MCF-7): > 50 µM
IC50 (A549): > 50 µM
IC50 (LNCaP): < 0.2 µM

COC(=O)c1ccc2c(c1)nc(Nc1ccc(F)c(Cl)c1)c1ccncc12
IC50 (HCT-116): 3.94 µM
IC50 (Hs578T): 2.62 µM
IC50 (PC3): 9.02 µM
IC50 (Jurkat): 4.25 µM
IC50 (H1299): 8.46 µM

C#Cc1cccc(Nc2nc3cc(C(=O)O)ccc3c3cnc(NCCOC)nc23)c1 [drawing 472]
IC50 (BxPC3): 1.17 µM
IC50 (PanC1): 4.61 µM

COc1cccc(Nc2nc3cc(C(=O)O)ccc3c3cnccc23)c1
IC50 (HCT-116): > 10 µM
IC50 (Hs578T): 12.9 µM
IC50 (PC3): 17.4 µM
IC50 (Jurkat): 6.52 µM
IC50 (H1299): 10.7 µM
IC50 (MiaPaCa): > 10 µM

Nc1ncc2c(n1)c(Nc1cccc(Cl)c1)nc1cc(C(=O)O)ccc12 [drawing 482]
IC50 (BxPC3): 0.61 µM
IC50 (PanC1): 3.62 µM

COC(=O)c1ccc2c(c1)nc(Nc1cccc(Cl)c1)c1nc(NCCC(N)=O)ncc12 [drawing 496]
IC50 (BxPC3): 2.62 µM
IC50 (PanC1): 25.5 µM

CN(C)CCNc1ncc2c(n1)c(Nc1ccc(F)c(Cl)c1)nc1cc(C(=O)O)ccc12 [drawing 504]
IC50 (BxPC3): 1.52 µM
IC50 (PanC1): 44.9 µM

O=C(O)c1ccc2c(c1)nc(Nc1ccc(F)c(Cl)c1)c1ncncc12 [drawing 296]
IC50 (Hs578T): 9.7 µM
IC50 (PC3): 18.8 µM
IC50 (Jurkat): 4.29 µM
IC50 (H1299): 7.55 µM
IC50 (MiaPaCa): 1.22 µM

Fc1cccc(Nc2nc3cc(-c4nnn[nH]4)ccc3c3cnccc23)c1 [drawing 305]
IC50 (HCT-116): > 10 µM
IC50 (PC3): > 50 µM
IC50 (Jurkat): 9.43 µM
IC50 (H1299): > 50 µM
IC50 (MiaPaCa): > 10 µM

Clc1cccc(Nc2nc3cc(-c4nnn[nH]4)ccc3c3cnccc23)c1 [drawing 310]
IC50 (HCT-116): > 10 µM
IC50 (PC3): 46.6 µM
IC50 (Jurkat): 14.2 µM
IC50 (H1299): > 50 µM
IC50 (MiaPaCa): > 10 µM

COC(CNc1ncc2c(n1)c(Nc1ccc(F)c(Cl)c1)nc1cc(C(=O)O)ccc12)OC [drawing 506]
IC50 (BxPC3): 2.86 µM
IC50 (PanC1): 41.5 µM

O=C(O)c1ccc2c(c1)nc(Nc1ccc(F)c(Cl)c1)c1nc(NC3CC3)ncc12 [drawing 488]
IC50 (BxPC3): 9.48 µM
IC50 (PanC1): 8.53 µM

CNC(=O)c1ccc2c(c1)nc(Nc1cccc(C(F)(F)F)c1)c1nc(NC3CC3)ncc12 [drawing 509]
IC50 (BxPC3): 3 µM
IC50 (PanC1): 18.9 µM

COCCNc1ncc2c(n1)c(Nc1ccc(F)c(Cl)c1)nc1cc(C(=O)O)ccc12 [drawing 489]
IC50 (BxPC3): 1.61 µM
IC50 (PanC1): > 50 µM

O=C(O)c1ccc2c(c1)nc(Nc1ccccc1)c1nc(NC3CC3)ncc12 [drawing 461]
IC50 (BxPC3): 2.16 µM
IC50 (PanC1): 5.02 µM

CC(C)OC(=O)Nc1ccc2c(c1)nc(Nc1cccc(C(F)(F)F)c1)c1nc(NC3CC3)ncc12 [drawing 513]
IC50 (BxPC3): 0.9 µM
IC50 (PanC1): 9.88 µM

N#Cc1cccc(Nc2nc3cc(C(=O)O)ccc3c3cnccc23)c1 [drawing 388]
IC50 (MDAMB231): 28.7 µM
IC50 (MCF-7): 41 µM
IC50 (A549): > 50 µM
IC50 (LNCaP): 15.5 µM
IC50 (K-562): 9.15 µM

O=C(O)c1ccc2c(c1)nc(Nc1ccc(F)c(Cl)c1)c1nc(NCc3cccnc3)ncc12 [drawing 510]
IC50 (BxPC3): 3.16 µM
IC50 (PanC1): 20.9 µM

COC(=O)c1ccc2c(c1)nc(Nc1ccc(F)c(Cl)c1)c1ncncc12 [drawing 295]
IC50 (HCT-116): > 10 µM
IC50 (Hs578T): 3.7 µM
IC50 (PC3): 15.8 µM
IC50 (Jurkat): 20.3 µM
IC50 (H1299): 15.4 µM

NC(=O)CCNc1ncc2c(n1)c(Nc1cccc(Cl)c1)nc1cc(C(=O)O)ccc12 [drawing 497]
IC50 (BxPC3): 20.9 µM
IC50 (PanC1): > 50 µM

O=C(O)c1ccc2c(c1)nc(Nc1ccc(F)c(Cl)c1)c1ncncc12 [drawing 445]
IC50 (BxPC3): 3.55 µM
IC50 (PanC1): 3.37 µM

CN(C)CCNc1nc2cc(C(=O)O)ccc2c2cnccc12
IC50 (HCT-116): > 10 µM
IC50 (Hs578T): 12.9 µM
IC50 (PC3): 17.9 µM
IC50 (Jurkat): 23.8 µM
IC50 (H1299): 3.8 µM
